What follows are compounds tested against T1, hMAGL (Homo sapiens, UniProt Q99685) (assay: 2-AG assay: MAGL inhibition, hydrolysis of 2-arachidonoylglycerol to arachidonic acid followed by mass spectrometry).
T1 sequence (Q99685 1-303): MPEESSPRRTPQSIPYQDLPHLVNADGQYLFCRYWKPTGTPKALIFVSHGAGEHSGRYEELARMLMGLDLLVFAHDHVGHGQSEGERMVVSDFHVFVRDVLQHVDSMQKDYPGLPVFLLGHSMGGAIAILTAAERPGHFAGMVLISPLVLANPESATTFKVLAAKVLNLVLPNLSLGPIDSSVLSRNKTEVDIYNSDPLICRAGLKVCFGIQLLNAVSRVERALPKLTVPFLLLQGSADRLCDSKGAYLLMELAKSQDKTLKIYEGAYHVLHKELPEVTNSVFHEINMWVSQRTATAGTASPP
Format: biochemical
In short: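 Read-out is LC-MS/MS of arachidonic acid released from 2-arachidonoylglycerol (8 μM final), normalised to d8-arachidonic acid internal standard after acetonitrile quench. Enzyme […] and compound were pre-mixed 15 min, then reacted 30 min, both at RT, in Tris/EDTA buffer with 0.01% Tween-20 and 2.5% DMSO.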
For `Cc1cc(C2CC2)nn1CC1CC2(C1)CN(C(=O)N1CC3(CC(n4cnc(C5CC5)n4)C3)C1)C2` [Example 135, [6-[(3-cyclopropyl-5-methyl-pyrazol-1-yl)methyl]-2-azaspiro[3.3]heptan-2-yl]-[6-(3-cyclopropyl-1,2,4-triazol-1-yl)-2-azaspiro[3.3]heptan-2-yl]methanone], the IC50 was 0.23 nM. `Cc1cc(C2CC2)nn1CC1CC2(C1)CN(C(=O)N1CC3(CC(n4cnc(C5(O)CC5)n4)C3)C1)C2` [Example 136, [6-[(3-cyclopropyl-5-methyl-pyrazol-1-yl)methyl]-2-azaspiro[3.3]heptan-2-yl]-[6-[3-(1-hydroxycyclopropyl)-1,2,4-triazol-1-yl]-2-azaspiro[3.3]heptan-2-yl]methanone] showed an IC50 of 5.53 nM. `Cn1nc(CC2CC3(C2)CN(C(=O)N2CC4(CC(n5cnc(C6(O)CC6)n5)C4)C2)C3)c(C(F)(F)F)n1` [Example 137] showed an IC50 of 2.4 nM. Compound `O=C(N1CC2(CC(Cc3nc(C(F)(F)F)no3)C2)C1)N1CC2(CC(n3cnc(C4(O)CC4)n3)C2)C1` [Example 138] has an IC50 of 18.1 nM. `O=C(N1CC2(CC(Cc3cc(C(F)(F)F)nn3CC(F)(F)F)C2)C1)N1CC2(CC(n3cnc(C4(O)CC4)n3)C2)C1` [Example 139] showed an IC50 of 2.08 nM. `O=C(N1CC2(CC(Cc3cc(C(F)(F)F)nn3CC(F)(F)F)C2)C1)N1CC2(CC(n3cnc(C(F)(F)F)n3)C2)C1` [Example 140, [6-[[2-(2,2,2-trifluoroethyl)-5-(trifluoromethyl)pyrazol-3-yl]methyl]-2-azaspiro[3.3]heptan-2-yl]-[6-[3-(trifluoromethyl)-1,2,4-triazol-1-yl]-2-azaspiro[3.3]heptan-2-yl]methanone] was tested, and the IC50 was 0.47 nM. With `O=C(N1CC2(CC(Cn3ccc(C4CC4)n3)C2)C1)N1CC2(CC(n3cnc(C(F)(F)F)n3)C2)C1` [Example 142, [6-[(3-cyclopropylpyrazol-1-yl)methyl]-2-azaspiro[3.3]heptan-2-yl]-[6-[3-(trifluoromethyl)-1,2,4-triazol-1-yl]-2-azaspiro[3.3]heptan-2-yl]methanone] the IC50 was 0.94 nM. `O=C(N1CC2(CC(Cn3ccc(C4CC4)n3)C2)C1)N1CC2(CC(n3cnc(C4CC4)n3)C2)C1` [Example 143, [6-[(3-cyclopropylpyrazol-1-yl)methyl]-2-azaspiro[3.3]heptan-2-yl]-[6-(3-cyclopropyl-1,2,4-triazol-1-yl)-2-azaspiro[3.3]heptan-2-yl]methanone] showed an IC50 of 0.38 nM. `O=C(N1CC2(CC(Cn3cc(CC(F)(F)F)cn3)C2)C1)N1CC2(CC(n3cnc(C4(O)CC4)n3)C2)C1` [Example 144, [6-[3-(1-hydroxycyclopropyl)-1,2,4-triazol-1-yl]-2-azaspiro[3.3]heptan-2-yl]-[6-[[4-(2,2,2-trifluoroethyl)pyrazol-1-yl]methyl]-2-azaspiro[3.3]heptan-2-yl]methanone] was tested, and the IC50 was 6.75 nM. `O=C(N1CC2(CC(Cn3ccnc3C(F)(F)F)C2)C1)N1CC2(CC(c3cc(C4CC4)n[nH]3)C2)C1` [Example 145, [6-(3-cyclopropyl-1H-pyrazol-5-yl)-2-azaspiro[3.3]heptan-2-yl]-[6-[[2-(trifluoromethyl)imidazol-1-yl]methyl]-2-azaspiro[3.3]heptan-2-yl]methanone] showed an IC50 of 0.4 nM. In the case of `O=C(N1CC2(CC(Cn3ccnc3C(F)(F)F)C2)C1)N1CC2(CC(n3cnc(C4(O)CC4)n3)C2)C1` [Example 146], the IC50 is reported as 14.8 nM. Compound `O=C(N1CC2(CC(c3cc(C4CC4)n[nH]3)C2)C1)N1CC2(CN(Cc3ncc(C(F)(F)F)s3)C2)C1` [Example 147, [6-(3-cyclopropyl-1H-pyrazol-5-yl)-2-azaspiro[3.3]heptan-2-yl]-[6-[[5-(trifluoromethyl)thiazol-2-yl]methyl]-2,6-diazaspiro[3.3]heptan-2-yl]methanone] has an IC50 of 1.04 nM. For `O=C(N1CC2(CC(n3cnc(C4(O)CC4)n3)C2)C1)N1CC2(CN(Cc3ncc(C(F)(F)F)s3)C2)C1` [Example 148, [6-[3-(1-hydroxycyclopropyl)-1,2,4-triazol-1-yl]-2-azaspiro[3.3]heptan-2-yl]-[6-[[5-(trifluoromethyl)thiazol-2-yl]methyl]-2,6-diazaspiro[3.3]heptan-2-yl]methanone], the IC50 was 10.8 nM. `O=C(N1CC2(CC(n3cnc(C(F)(F)F)n3)C2)C1)N1CC2(CN(Cc3ncc(C(F)(F)F)s3)C2)C1` [Example 149] gave an IC50 of 1.78 nM. For `O=C(N1CC2(CC(n3cnc(C4CC4)n3)C2)C1)N1CC2(CN(Cc3ncc(C(F)(F)F)s3)C2)C1` [Example 150, [6-(3-cyclopropyl-1,2,4-triazol-1-yl)-2-azaspiro[3.3]heptan-2-yl]-[6-[[5-(trifluoromethyl)thiazol-2-yl]methyl]-2,6-diazaspiro[3.3]heptan-2-yl]methanone], the IC50 was 1.52 nM. With `O=C(N1CC2(CC(c3cc(C4CC4)n[nH]3)C2)C1)N1CC2(CN(Cc3cc(C(F)(F)F)ns3)C2)C1` [Example 151, [6-(3-cyclopropyl-1H-pyrazol-5-yl)-2-azaspiro[3.3]heptan-2-yl]-[6-[[3-(trifluoromethyl)isothiazol-5-yl]methyl]-2,6-diazaspiro[3.3]heptan-2-yl]methanone] the IC50 was 2.12 nM. With `O=C(N1CC2(CC(n3cnc(C4(O)CC4)n3)C2)C1)N1CC2(CN(Cc3cc(C(F)(F)F)ns3)C2)C1` [Example 152, [6-[3-(1-hydroxycyclopropyl)-1,2,4-triazol-1-yl]-2-azaspiro[3.3]heptan-2-yl]-[6-[[3-(trifluoromethyl)isothiazol-5-yl]methyl]-2,6-diazaspiro[3.3]heptan-2-yl]methanone] the IC50 was 161 nM. `O=C(N1CC2(CC(n3cnc(C(F)(F)F)n3)C2)C1)N1CC2(CN(Cc3cc(C(F)(F)F)ns3)C2)C1` [Example 153, [6-[[3-(trifluoromethyl)isothiazol-5-yl]methyl]-2,6-diazaspiro[3.3]heptan-2-yl]-[6-[3-(trifluoromethyl)-1,2,4-triazol-1-yl]-2-azaspiro[3.3]heptan-2-yl]methanone] showed an IC50 of 15.3 nM. `O=C(N1CC2(CC(n3cnc(C4CC4)n3)C2)C1)N1CC2(CN(Cc3cc(C(F)(F)F)ns3)C2)C1` [Example 154, [6-(3-cyclopropyl-1,2,4-triazol-1-yl)-2-azaspiro[3.3]heptan-2-yl]-[6-[[3-(trifluoromethyl)isothiazol-5-yl]methyl]-2,6-diazaspiro[3.3]heptan-2-yl]methanone] showed an IC50 of 2.64 nM. `O=C(N1CC2(CC(n3cnc(C4(O)CC4)n3)C2)C1)N1CC2(CN(Cc3cc(C(F)(F)F)sn3)C2)C1` [Example 155, [6-[3-(1-hydroxycyclopropyl)-1,2,4-triazol-1-yl]-2-azaspiro[3.3]heptan-2-yl]-[6-[[5-(trifluoromethyl)isothiazol-3-yl]methyl]-2,6-diazaspiro[3.3]heptan-2-yl]methanone] gave an IC50 of 86.8 nM. Work on `O=C(N1CC2(CC(n3cnc(C4CC4)n3)C2)C1)N1CC2(CN(Cc3cc(C(F)(F)F)sn3)C2)C1` [Example 156, [6-(3-cyclopropyl-1,2,4-triazol-1-yl)-2-azaspiro[3.3]heptan-2-yl]-[6-[[5-(trifluoromethyl)isothiazol-3-yl]methyl]-2,6-diazaspiro[3.3]heptan-2-yl]methanone] yielded an IC50 of 3.8 nM. Work on `Cn1ncc(C(F)(F)F)c1CN1CC2(C1)CN(C(=O)N1CC3(CC(c4cc(C5CC5)n[nH]4)C3)C1)C2` [Example 157, [6-(3-cyclopropyl-1H-pyrazol-5-yl)-2-azaspiro[3.3]heptan-2-yl]-[6-[[2-methyl-4-(trifluoromethyl)pyrazol-3-yl]methyl]-2,6-diazaspiro[3.3]heptan-2-yl]methanone] yielded an IC50 of 0.63 nM. Work on `Cn1ncc(C(F)(F)F)c1CN1CC2(C1)CN(C(=O)N1CC3(CC(n4cnc(C(F)(F)F)n4)C3)C1)C2` [Example 158, [6-[[2-methyl-4-(trifluoromethyl)pyrazol-3-yl]methyl]-2,6-diazaspiro[3.3]heptan-2-yl]-[6-[3-(trifluoromethyl)-1,2,4-triazol-1-yl]-2-azaspiro[3.3]heptan-2-yl]methanone] yielded an IC50 of 9.26 nM. For `Cn1ncc(C(F)(F)F)c1CN1CC2(C1)CN(C(=O)N1CC3(CC(n4cnc(C5CC5)n4)C3)C1)C2` [Example 159, [6-(3-cyclopropyl-1,2,4-triazol-1-yl)-2-azaspiro[3.3]heptan-2-yl]-[6-[[2-methyl-4-(trifluoromethyl)pyrazol-3-yl]methyl]-2,6-diazaspiro[3.3]heptan-2-yl]methanone], the IC50 was 2.2 nM. `Cn1nc(CN2CC3(C2)CN(C(=O)N2CC4(CC(c5cc(C6CC6)n[nH]5)C4)C2)C3)cc1C(F)(F)F` [Example 160] was tested, and the IC50 was 2.08 nM. For `Cn1nc(CN2CC3(C2)CN(C(=O)N2CC4(CC(n5cnc(C(F)(F)F)n5)C4)C2)C3)cc1C(F)(F)F` [Example 161, [6-[[1-methyl-5-(trifluoromethyl)pyrazol-3-yl]methyl]-2,6-diazaspiro[3.3]heptan-2-yl]-[6-[3-(trifluoromethyl)-1,2,4-triazol-1-yl]-2-azaspiro[3.3]heptan-2-yl]methanone], the IC50 was 2.39 nM. For `Cn1nc(CN2CC3(C2)CN(C(=O)N2CC4(CC(n5cnc(C6CC6)n5)C4)C2)C3)cc1C(F)(F)F` [Example 162, [6-(3-cyclopropyl-1,2,4-triazol-1-yl)-2-azaspiro[3.3]heptan-2-yl]-[6-[[1-methyl-5-(trifluoromethyl)pyrazol-3-yl]methyl]-2,6-diazaspiro[3.3]heptan-2-yl]methanone], the IC50 was 5.27 nM. `Cn1ncc(CN2CC3(C2)CN(C(=O)N2CC4(CC(c5cc(C6CC6)n[nH]5)C4)C2)C3)c1C(F)(F)F` [Example 163, [6-(3-cyclopropyl-1H-pyrazol-5-yl)-2-azaspiro[3.3]heptan-2-yl]-[6-[[1-methyl-5-(trifluoromethyl)pyrazol-4-yl]methyl]-2,6-diazaspiro[3.3]heptan-2-yl]methanone] was tested, and the IC50 was 3.3 nM.
